Measurements: ChEMBL document CHEMBL1127009, “Fibrinogen receptor antagonists containing a gamma-lactam Gly-Asp isostere” (Bioorg Med Chem Lett, 1993)
Peptide text beside a SMILES is read from it. * marks the point of attachment. Cbz = O=C(OCc1ccccc1)*

Legend:
Homo sapiens = species on record: Homo sapiens; assay: Inhibition of ADP-induced aggregation of human blood platelets in the presence of fibrinogen.; type: functional
[1] = target: Integrin alpha-IIb/beta-3 (Homo sapiens, UniProt P05106+P08514); assay: Inhibition of fibrinogen binding to purified immobilized alpha IIb beta-3 integrin isolated from membranes of human blood platelets.
Chain of Integrin alpha-IIb/beta-3 (P05106 27-788 limits assumed): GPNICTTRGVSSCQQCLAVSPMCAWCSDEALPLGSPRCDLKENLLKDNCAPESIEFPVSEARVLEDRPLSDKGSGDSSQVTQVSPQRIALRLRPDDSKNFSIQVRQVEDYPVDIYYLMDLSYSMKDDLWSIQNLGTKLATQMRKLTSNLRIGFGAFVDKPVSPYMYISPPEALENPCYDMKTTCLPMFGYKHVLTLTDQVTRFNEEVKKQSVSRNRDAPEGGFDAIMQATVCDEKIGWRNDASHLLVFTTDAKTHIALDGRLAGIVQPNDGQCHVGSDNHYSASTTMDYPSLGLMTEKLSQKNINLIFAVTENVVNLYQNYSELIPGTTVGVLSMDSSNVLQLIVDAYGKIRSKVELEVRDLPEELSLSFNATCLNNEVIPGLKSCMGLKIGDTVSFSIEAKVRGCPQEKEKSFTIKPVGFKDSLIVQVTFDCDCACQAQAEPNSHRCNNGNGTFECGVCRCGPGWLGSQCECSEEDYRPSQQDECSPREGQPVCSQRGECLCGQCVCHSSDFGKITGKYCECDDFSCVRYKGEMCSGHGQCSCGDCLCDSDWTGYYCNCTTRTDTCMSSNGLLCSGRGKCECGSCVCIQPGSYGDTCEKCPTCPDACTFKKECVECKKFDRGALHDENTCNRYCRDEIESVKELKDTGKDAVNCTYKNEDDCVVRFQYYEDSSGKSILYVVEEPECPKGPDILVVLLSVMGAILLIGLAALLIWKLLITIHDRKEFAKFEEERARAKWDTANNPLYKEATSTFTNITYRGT
Chain of Integrin alpha-IIb/beta-3 (P08514 32-887 limits assumed): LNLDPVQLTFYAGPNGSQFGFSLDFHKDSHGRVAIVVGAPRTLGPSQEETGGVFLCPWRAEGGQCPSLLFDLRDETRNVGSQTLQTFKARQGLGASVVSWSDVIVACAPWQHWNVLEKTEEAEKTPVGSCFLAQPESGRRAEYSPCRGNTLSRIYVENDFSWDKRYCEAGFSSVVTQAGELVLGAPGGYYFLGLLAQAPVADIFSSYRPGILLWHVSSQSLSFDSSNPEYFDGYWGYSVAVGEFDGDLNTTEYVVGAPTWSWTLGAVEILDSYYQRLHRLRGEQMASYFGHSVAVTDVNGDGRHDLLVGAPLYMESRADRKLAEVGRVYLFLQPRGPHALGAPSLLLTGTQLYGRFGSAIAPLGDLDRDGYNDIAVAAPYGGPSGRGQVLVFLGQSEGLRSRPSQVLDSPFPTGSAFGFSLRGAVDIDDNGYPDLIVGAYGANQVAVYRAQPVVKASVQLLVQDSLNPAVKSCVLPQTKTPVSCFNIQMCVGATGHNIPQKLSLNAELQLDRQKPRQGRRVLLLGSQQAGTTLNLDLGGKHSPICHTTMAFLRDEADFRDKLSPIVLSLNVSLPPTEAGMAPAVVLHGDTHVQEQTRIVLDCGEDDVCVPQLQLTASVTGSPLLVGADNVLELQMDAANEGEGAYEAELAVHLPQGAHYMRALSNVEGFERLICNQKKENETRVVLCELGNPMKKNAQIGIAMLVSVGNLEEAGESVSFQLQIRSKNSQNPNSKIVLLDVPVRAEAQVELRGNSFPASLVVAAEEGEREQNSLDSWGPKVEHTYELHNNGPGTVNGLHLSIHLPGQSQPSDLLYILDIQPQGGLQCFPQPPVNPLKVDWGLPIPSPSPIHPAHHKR
Chain of Integrin alpha-IIb/beta-3 (P08514 891-1039 limits assumed): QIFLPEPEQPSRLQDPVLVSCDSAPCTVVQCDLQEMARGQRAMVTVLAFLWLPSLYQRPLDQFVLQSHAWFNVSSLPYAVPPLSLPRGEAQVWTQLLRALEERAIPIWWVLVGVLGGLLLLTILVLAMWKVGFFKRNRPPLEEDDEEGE

Row | IC50 (Homo sapiens) [µM] | IC50 [1] [nM] | SMILES
1 | 4.4 | 120 | COC(=O)[C@H](Cn1ccc2ccccc21)NC(=O)[C@H](CC(=O)O)N1CC[C@H](NC(=O)Cc2ccc(C(=N)N)cc2)C1=O
2 | 0.04 | 2 | N=C(N)c1ccc(CC(=O)N[C@H]2CCN([C@@H](CC(=O)O)C(=O)N[C@H](C(=O)O)C34CC5CC(CC(C5)C3)C4)C2=O)cc1
3 | 12.8 | 560 | CC(C)C[C@H](NC(=O)[C@H](CC(=O)O)N1CC[C@H](NC(=O)[C@H](CCCN=C(N)N)NC(=O)OCc2ccccc2)C1=O)C(=O)O
4 | 85.1 | 770 | COC(=O)[C@H](Cc1ccccc1)NC(=O)[C@H](CC(=O)O)N1CC[C@H](NC(=O)[C@H](CCCN=C(N)N)NC(=O)OCc2ccccc2)C1=O
5 | 4 | 510 | COC(=O)[C@H](CC12CC3CC(CC(C3)C1)C2)NC(=O)[C@H](CC(=O)O)N1CC[C@H](NC(=O)[C@H](CCCN=C(N)N)NC(=O)OCc2ccccc2)C1=O
6 | 0.36 | 20 | COC(=O)[C@H](CC12CC3CC(CC(C3)C1)C2)NC(=O)[C@H](CC(=O)O)N1CC[C@H](NC(=O)Cc2ccc(C(=N)N)cc2)C1=O
7 | 0.36 | 40 | CC(C)C[C@H](NC(=O)[C@H](CC(=O)O)N1CC[C@H](NC(=O)Cc2ccc(C(=N)N)cc2)C1=O)C(=O)O
8 | > 100 | 78000 | COC(=O)[C@H](Cc1ccccc1)NC(=O)[C@H](CC(=O)O)NC(=O)[C@H](C)NC(=O)[C@H](CCCNC(=N)N)NC(=O)OCc1ccccc1
9 | 25.1 | 1220 | COC(=O)[C@H](Cn1ccc2ccccc21)NC(=O)[C@H](CC(=O)O)N1CC[C@H](NC(=O)[C@H](CCCN=C(N)N)NC(=O)OCc2ccccc2)C1=O
10 | > 100 | > 100000 | CC(C)[C@H](NC(=O)[C@@H](CC(=O)O)N1CC[C@H](NC(=O)Cc2ccc(C(=N)N)cc2)C1=O)C(=O)O
11 | 3.1 | 110 | CC(C)[C@H](NC(=O)[C@H](CC(=O)O)NC(=O)CNC(=O)[C@H](CCCN=C(N)N)NC(=O)OCc1ccccc1)C(=O)O (Cbz-RGDV-OH)
12 | 0.74 | 20 | N=C(N)c1ccc(CC(=O)N[C@H]2CCN([C@@H](CC(=O)O)C(=O)N[C@@H](Cn3ccc4ccccc43)C(=O)O)C2=O)cc1
13 | 13 | 270 | COC(=O)[C@H](Cc1ccccc1)NC(=O)[C@H](CC(=O)O)NC(=O)CNC(=O)[C@H](CCCN=C(N)N)NC(=O)OCc1ccccc1 (Cbz-RGDF-OMe)
14 | 0.1 | 5 | N=C(N)c1ccc(CC(=O)N[C@H]2CCN([C@@H](CC(=O)O)C(=O)N[C@@H](CC34CC5CC(CC(C5)C3)C4)C(=O)O)C2=O)cc1
15 | > 100 | > 100000 | N=C(N)NCCC[C@H](NC(=O)OCc1ccccc1)C(=O)N[C@@H]1CCN([C@@H](CC(=O)O)C(=O)N[C@@H](Cc2ccccc2)C(=O)O)C1=O
16 | 10 | 1070 | N=C(N)NCCC[C@H](NC(=O)OCc1ccccc1)C(=O)N[C@H]1CCN([C@@H](CC(=O)O)C(=O)N[C@@H](Cn2ccc3ccccc32)C(=O)O)C1=O
17 | > 100 | > 100000 | COC(=O)[C@H](Cc1ccccc1)NC(=O)[C@H](CC(=O)O)NC(=O)[C@@H](C)NC(=O)[C@H](CCCN=C(N)N)NC(=O)OCc1ccccc1
